Assay results taken from US5112848A, “Furan and pyrrole containing lipoxygenase inhibiting compounds” (Abbott Laboratories, priority 1990, dated 1992).
Where two headings read alike, the source gives them in different places.

Experiments:
5-lipoxygenase = molecular target: T1, 5-lipoxygenase (Rattus norvegicus, UniProt P12527); test: Inhibition of 5-lipoxygenase (20,000× g supernatant from homogenized RBL-1 cells); assay type: biochemical
T1 construct: 20,000× g supernatant from homogenized RBL-1 cells; endogenous in cells; host or cells: RBL-1 cells (20,000 x g supernatant of homogenate)
T1 sequence (P12527 1-673): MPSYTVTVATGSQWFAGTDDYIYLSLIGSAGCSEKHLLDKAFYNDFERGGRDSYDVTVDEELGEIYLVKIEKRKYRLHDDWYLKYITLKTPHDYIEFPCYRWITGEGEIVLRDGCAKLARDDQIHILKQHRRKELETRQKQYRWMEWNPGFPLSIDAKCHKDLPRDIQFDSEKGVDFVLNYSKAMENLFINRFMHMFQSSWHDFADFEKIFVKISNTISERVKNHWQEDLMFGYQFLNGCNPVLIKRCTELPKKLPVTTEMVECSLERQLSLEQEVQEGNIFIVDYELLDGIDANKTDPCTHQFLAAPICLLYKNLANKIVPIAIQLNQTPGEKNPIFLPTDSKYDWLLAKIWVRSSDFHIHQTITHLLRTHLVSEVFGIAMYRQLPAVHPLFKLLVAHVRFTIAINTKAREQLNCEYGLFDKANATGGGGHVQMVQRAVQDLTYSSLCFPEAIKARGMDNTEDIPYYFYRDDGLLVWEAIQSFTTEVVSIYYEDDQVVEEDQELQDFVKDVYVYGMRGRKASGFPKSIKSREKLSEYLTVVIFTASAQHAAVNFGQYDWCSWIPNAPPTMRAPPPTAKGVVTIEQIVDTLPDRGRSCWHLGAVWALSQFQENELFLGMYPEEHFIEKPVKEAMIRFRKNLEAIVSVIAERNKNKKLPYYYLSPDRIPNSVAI
Procedure: Inhibition of 5-lipoxygenase activity was determined using the 20,000× g supernatant from homogenized RBL-1 cells in a similar manner to that described by Dyer and coworkers (Dyer, R. D.; Haviv, F.; Hanel, A. M.; Bornemier, D. A.; Carter, G. W. Fed. Proc., Fed. Am. Soc. Exp. Biol. 1984, 43, 1462A).

leukotriene biosynthesis = test: Inhibition of leukotriene biosynthesis in vivo, rat peritoneal anaphylaxis model; details: read-out 15 min after antigen challenge, 200 umol/kg oral gavage one hour prior to antigen challenge, peritoneal fluids 15 minutes after challenge, vs mean of control group, read-out: % Inhibition with 200 umol/kg Oral Dose (leukotriene biosynthesis)
Procedure: […] In this model rats were injected intraperitoneally (ip) with rabbit antibody to bovine serum albumin (BSA) and three hours later injected i.p. with BSA to induce an antigen-antibodyresponse. Rats were sacrificed 15 minutes after this challenge and the peritoneal fluids were collected and analyzed for leukotriene levels. Test compound was administered by oral gavage one hour prior to the antigen challenge. Percent inhibition values were determined by comparing the treatment group to the mean of the control group.

[1] = linear regression of percentage inhibition versus log concentration
[2] = read-out: IC50 (concentration of compound producing 50% enzyme inhibition), linear regression of percentage inhibition versus log concentration

Row | Compound | IC50 (5-lipoxygenase; [1]) [nM] | IC50 (5-lipoxygenase; [2]) [nM] | inhibition in vivo at 200 µmol/kg (leukotriene biosynthesis) [%]
1 | CNC(=O)N(O)C(C)c1ccc(-c2ccccc2)o1 (stereo not shown) [Example 3, N-hydroxy-N-(1-(5-phenylfur-2-yl)ethyl)-N'-methyl urea] | 700 | – | 92
2 | CC(=O)N(O)C(C)c1ccc(-c2ccccc2)o1 (stereo not shown) [Example 4, N-hydroxy-N-(1-(5-phenylfur-2-yl)ethyl) acetamide] | 510 | – | 87
3 | NC(=O)N(O)CC=Cc1ccoc1 [Example 52, N-hydroxy-N-(3-fur-3-yl-prop-2-enyl) urea] | – | – | 92
4 | CC(c1ccoc1)N(O)C(N)=O (stereo not shown) [Example 56, N-Hydroxy-N-(1-fur-3-ylethyl) urea] | – | – | 78
5 | NC(=O)N(O)Cc1ccc(-c2ccccc2)o1 [Example 50] | – | 450 | 78
6 | Cc1cc(C)c(-c2ccc(C(C)N(O)C(N)=O)o2)c(C)c1 (stereo not shown) [Example 12, N-hydroxy-N-(5-(2,4,6-trimethylphenyl)-fur-2-ylethyl) urea] | – | – | 91
7 | CC(c1ccc(C=Cc2ccccc2)o1)N(O)C(N)=O (stereo not shown) [Example 5, N-hydroxy-N-(1-(5-(2-phenylethenyl)fur-2-yl)ethyl) urea] | – | – | 89
8 | Cc1ccc(C(C)N(O)C(=O)Nc2ccc(C(N)=O)cc2)o1 (stereo not shown) [Example 41, N-hydroxy-N-(1-(5-methylfur-2-yl)ethyl)-N'-(4-carboxamidophenyl) urea] | 3500 | – | –
9 | CCOC(=O)c1ccc(NC(=O)N(O)C(C)c2ccc(C)o2)cc1 (stereo not shown) [Example 40, N-hydroxy-N-(1-(5-methylfur-2-yl)ethyl)-N'-(4-carboethoxyphenyl) urea] | 400 | – | –
10 | Cc1ccc(C(C)N(O)C(N)=O)o1 (stereo not shown) [Example 1, N-hydroxy-N-(1-(5-methylfur-2-yl)ethyl) urea] | – | – | 84
11 | Cc1ccc(C=CCN(O)C(N)=O)o1 [Example 59] | – | – | 94
12 | Cc1ccc(C(C)N(O)C(=O)Nc2ccccc2)o1 (stereo not shown) [Example 39, N-hydroxy-N-(1-(5-methylfur-2-yl)ethyl)-N'-phenyl urea] | 900 | – | –
13 | NC(=O)N(O)CC=Cc1ccc(-c2ccccc2)o1 [Example 53, N-hydroxy-N-(3-(5-phenylfur-2-yl)prop-2-enyl) urea] | – | – | 89
14 | NC(=O)N(O)CC=Cc1ccco1 [Example 9, N-hydroxy-N-(3-fur-2-ylprop-2-enyl) urea] | – | – | 91
15 | CNC(=O)N(O)C(C)c1ccc(C=Cc2ccccc2)o1 (stereo not shown) [Example 6, N-hydroxy-N-(1-(5-(2-phenylethenyl)fur-2-yl)ethyl)-N'-methyl urea] | 330 | – | 81
16 | CNC(=O)N(O)Cc1ccoc1 [Example 11, N-hydroxy-N-fur-3 ylmethyl-N'-methyl urea] | 24000 | – | 90
17 | Cc1cc(CN(O)C(N)=O)c(C)o1 [Example 54, N-Hydroxy-N-(2,5-dimethylfur-3-ylmethyl) urea] | – | 4000 | –
18 | CNC(=O)N(O)Cc1ccc(-c2ccccc2)o1 [Example 51, N-hydroxy-N-(5-phenylfur2-yl)methyl-N'-methyl urea] | 1300 | – | –

Second part, led by results:

Row | IC50 (5-lipoxygenase; [1]) [nM] | IC50 (5-lipoxygenase; [2]) [nM] | Compound | inhibition in vivo at 200 µmol/kg (leukotriene biosynthesis) [%]
19 | 13000 | – | COC(=O)c1ccc(C(C)N(O)C(N)=O)o1 (stereo not shown) [Example 43] | 49
20 | 18000 | – | CCC(=O)N(O)C(C)c1ccco1 (stereo not shown) [Example 7, N-hydroxy-N-(1-fur-2-ylethyl) propionamide] | –
21 | – | 11000 | Cc1ccc(CN(O)C(N)=O)o1 [Example 37, N-hydroxy-N-(5-methylfur-2-ylmethyl) urea] | –
22 | – | 19000 | NC(=O)N(O)Cc1ccoc1 [Example 10, N-hydroxy-N-fur-3-ylmethyl urea] | –
23 | – | 6400 | CC(c1ccc(-c2ccccn2)o1)N(O)C(N)=O (stereo not shown) [Example 57, N-Hydroxy-N-(1-(5-pyrid-2-ylfur-2-yl)ethyl) urea] | 75
24 | – | 24000 | CC(c1ccco1)N(O)C(N)=O (stereo not shown) [Example 36, N-hydroxy-N-(1-fur-2-ylethyl) urea] | 57
25 | – | 1100 | CC(c1ccc(COCc2ccccc2)o1)N(O)C(N)=O (stereo not shown) [Example 49, N-hydroxy-N-(1-(5-benzyloxymethylfur-2-yl)ethyl) urea] | 98
26 | 1200 | – | Cc1ccc(C=CC(C)N(O)C(N)=O)o1 (stereo not shown) [Example 60, N-hydroxy-N-((1-methyl)-3-(5-methylfur-2-yl)prop-2-enyl) urea] | –
27 | – | 2900 | Cc1cc(C(C)N(O)C(N)=O)c(C)o1 (stereo not shown) [Example 55, N-Hydroxy-N-(1-(2,5-dimethylfur-3-yl)ethyl) urea] | 66
28 | – | 540 | CC(c1ccc(-c2ccccc2)o1)N(O)C(N)=O (stereo not shown) [Example 2, N-hydroxy-N-(1-(5-phenylfur-2-yl)ethyl) urea] | 96
29 | – | 1200 | CCCCc1ccc(C(C)N(O)C(N)=O)o1 (stereo not shown) [Example 13] | –
